Data set [1] relates to CCD18 normal colon fibroblast cell line. The data set can be described thus: Proliferation assay (Sulforhodamine B), CCD18. The data set is classed as cell-based. The conditions noted are these: Homo sapiens, CCD18, 72 h treatment, mean ± SD of triplicate samples. How it is done:
(§1) The T84, SW480, HCT15, HT29 and MC38 colon cancer cell lines were selected to assay the bengamide effect. A normal colon fibroblast cell line (CCD18) was included in the analysis. In addition, a cell line of another tumor type (breast cancer) was studied (MCF7). All cell lines were grown in Dulbecco’s modified Eagle’s medium (DMEM) supplemented with fetal bovine serum (10%) and a mix of penicillin-streptomycin (1%) (Sigma-Aldrich, Madrid, Spain). Cell lines were maintained at 37 °C and 5% CO2 in a humidified incubator.
(§2) The different cell lines were seeded in 48-well plates at a cell density of 3 × 10^3 cells/well for MC38, 5 × 10^3 cells/well for T84, SW480, HCT15 and CCD18, 15 × 10^3 cells/well for HT29 and 4 × 10^3 cells/well for MCF7. After attaching to the well, the treatments, Ben I and Ben V (analogues 5 and 10, respectively), were added in a wide range of doses determined by the cell line from an initial stock of 0.3 mg/mL for Ben I and 6.9 mg/mL for Ben V, both dissolved in water. The treatments were maintained for 72 h. Elapsed this time, the cells were fixed with trichloroacetic acid at 10%, stained with Sulforhodamine B (Sigma-Aldrich, Madrid, Spain) and the dye was lifted with Trizma® (Sigma-Aldrich, Madrid, Spain) at 10% following a previously established protocol. Doxorubicin and 5-Fluorouracil were used as reference compounds in breast and colon cell lines, respectively.

The test system of data set [2] is T84 colon cancer cell line. Put plainly: Proliferation assay (Sulforhodamine B), T84. The data set is classed as cell-based. The conditions noted are these: Homo sapiens; T84, 72 h treatment, mean ± SD of triplicate samples. Here is the method:
as §1, §2

Data set [3] relates to SW480 colon cancer cell line. Put plainly: Proliferation assay (Sulforhodamine B), SW480. The data set is classed as cell-based. Conditions: Homo sapiens; SW480, 72 h treatment, mean ± SD of triplicate samples. Here is the method:
as §1, §2

The test system of data set [4] is HCT15 resistant colon cancer cell line. The data set can be described thus: Proliferation assay (Sulforhodamine B), HCT15. The format is cell-based. Conditions: Homo sapiens, HCT-15; HCT15, 72 h treatment, mean ± SD of triplicate samples. How it is done:
as §1, §2

Data set [5] concerns HT29 colon cancer cell line. The data set can be described thus: Proliferation assay (Sulforhodamine B), HT29. The format is cell-based. Conditions: Homo sapiens, HT-29; HT29, 72 h treatment, mean ± SD of triplicate samples. How it is done:
as §1, §2

The subject of data set [6] is MC38 mouse colon cancer cell line. The data set can be described thus: Proliferation assay (Sulforhodamine B), MC38. The format is cell-based. The conditions noted are these: MC-38, MC38, 72 h treatment, mean ± SD of triplicate samples. Here is the method: as §1, §2
Data set [7] concerns MCF7 breast cancer cell line. Put plainly: Proliferation assay (Sulforhodamine B), MCF7. The format is cell-based. Conditions: Homo sapiens; MCF7, 72 h treatment, mean ± SD of triplicate samples. Here is the method:
as §1, §2

The nature of data set [8]: Hemolysis test using human erythrocytes. The format is cell-based. Conditions: human erythrocytes isolated from blood of healthy donors, 1 h at 37 °C, highest doses (range 0.01–40 µM), read-out: level of hemolysis. How it is done: (§3) To evaluate the effect of Ben I and Ben V compounds on blood cells, a hemolysis test using human erythrocytes and a toxicity test using WBC were carried out. Different blood cells (erythrocytes and WBC) were isolated from blood samples taken from healthy donors and exposed to a wide range of doses of both Ben I and Ben V compounds (0.01–40 µM) following our previously described protocol. Briefly, the erythrocytes were diluted 50 times their initial concentration in PBS, seeded in conical bottom 96-well plates and treated with the different treatments for 1 h at 37 °C under stirring. Following this, the plate was centrifuged, 100 µL of the supernatant was transferred to a new 96-well flat-bottom plate and the absorbance at 492 nm was determined. Erythrocytes treated with Triton X-100 to 20% were used as a positive control and as a negative control, erythrocytes treated with PBS were used. In the case of erythrocytes, the percentage of hemolysis (%HR) was calculated with the following formula: %HR=Abs(sample)−Abs(−control)/Abs(+control)−Abs(−control)×100.

A further data set has as its system human erythrocytes. Put plainly: Hemolysis test using human erythrocytes. Conditions: light microscopy after treatment. The data set is classed as cell-based. Here is the method:
as §3

Data set [9] is described as follows: Toxicity test in white blood cells (CCK-8). The data set is classed as cell-based. The conditions noted are these: human; WBC, 1 and 12 h of exposure, all doses tested (0.01–40 µM). How it is done: as §3, with “Erythrocytes treated with Triton X-100 to 20% were used as a positive control and as a negative control, erythrocytes treated with PBS were used.” left out
As for the WBCs, they were seeded in flat-bottom 96-well plates in RPMI-1640 medium supplemented with FBS (10%) and a mixture of antibiotic (1%) at a density of 2 × 10^4 cells/well. […] The CCK-8 reagent was added to each well and after 3 h of incubation the absorbance was measured at 450 and 620 nm to determine the viability according to the manufacturer.

For another data set, the system named is T84 cells. Put plainly: Cell cycle assay (PI, flow cytometry), T84. The data set is classed as cell-based, human. Conditions: T84, 48 h; for G2/M phase change vs control: IC25 and IC50. How it is done: (§4) To assess the effect of treatments in the cell cycle, a cancer cell line (T84) and a normal cell line (CCD18) were seeded in 6-well plates at a density of 1.5 × 10^5 and 1 × 10^5 cells/well, respectively. […] In addition, untreated cells were used as a negative control and cells treated with 5-FU at its IC50 at 48 h as a positive control. After this time, the culture medium of each treatment was collected in a clean cytometry tube, the wells were washed with PBS at 4 °C and this wash was added to the previous tube. The cells were detached with a trypsin-EDTA mixture and also added to the tube. Next, the tubes were centrifuged at 3500 rpm for 3 min, the supernatant was discarded, and the pellet was resuspended in 100 µL of PBS. After this, 900 µL of 70% cold EtOH was added to each tube while the tubes were vortexed, then the tubes were placed on ice and incubated at 4 °C for 10 min. After this time, two washes were carried out with PBS to remove ethanol and the pellets were resuspended in 250 µL of PBS, to which 250 µL of DNA extraction solution was added (192 mL of 0.2 M Na2HPO4 + 8 mL of 0.1 M citric acid, pH = 7.8). The samples were incubated at 37 °C for 10 min, centrifuged and the supernatant discarded. Finally, 250 µL of propidium iodide (PI)/RNAse (ImmunoStep, Salamanca, Spain) solution was added and the samples were incubated for 10 min at 37 °C in the dark. Thereafter, the samples were analyzed by FAC Scan on a Becton Dickinson analyzer cytometer (Becton Dickinson, Franklin Lakes, NJ, USA).
On the technique in general: Flow cytometry measures light scatter and fluorescence of single cells or particles in a stream.

Another data set deals with CCD18 normal colon cells. Put plainly: Cell cycle assay (PI, flow cytometry), CCD18. The format is cell-based, human. Conditions: CCD18, 48 h; for SubG1 and S phase change vs control: doses of IC50. How it is done:
as §4

Data set [10] has as its system MDA-MB-435 human breast cancer cells. Conditions: cited from earlier work.
For the next data set, the system named is cancer cell line A549. Also noted: method as in PMID 26514647. The conditions noted are these: A549, Figure 1; read-out: IC50 (cytotoxicity); cited from earlier work.
For data set [11] the following is noted: clinical candidate; cited from earlier work.
Setting [12] is: read-out: IC50 (cytotoxicity), MDA-MB-435, Figure 1.

Where two headings read alike, the source gives them in different places.

In general, IC50 refers to the concentration that gives 50% inhibition. What is called viability is the share of living cells, or the viability signal relative to a control. Read a high viability as less harm to the cells.

`O=c1[nH]cc(F)c(=O)[nH]1` [5-fluorouracil, reference compound]: the IC50 was 7350 ± 410 nM in [1]; 2680 ± 160 nM in [2]; 6350 ± 540 nM in data set [3]; 6580 ± 350 nM in data set [4]; 6140 ± 940 nM in [5]; 330 ± 10 nM in data set [6].

As for `CO[C@@H](C(=O)N[C@H]1CCCCNC1=O)[C@H](O)[C@@H](O)[C@H](O)/C=C/C(C)(C)C` [Ben I], the IC50 in data set [1] is 4700 ± 280 nM; in data set [2], 360 ± 30 nM; in [3], 590 ± 70 nM; in [4], 1900 ± 150 nM; in [5] it was 1020 ± 190 nM; in [6], 1600 ± 130 nM. Also, the values for the IC50 in [7] and in data set [10] (setting [12]) were 490 ± 50 nM and 630 nM, respectively. The hemolysis at 1 h in data set [8] was approximately 2%. The “erythrocytes agglutination or modification of morphology” value in the data set on human erythrocytes is “none of these compounds caused erythrocytes agglutination or modification of their morphology”. Moreover, in data set [9], the viability was approximately 100%. For the same compound, in the data set with T84 cells, the “SubG1 phase change vs control” value is “No differences were observed with the control”. The entries for the “G2/M phase change vs control” value in the data set on T84 cells and in the data set with CCD18 normal colon cells were “statistically significant (p < 0.05) G2/M phase increase” and “slight increase”, respectively. In addition, the “SubG1 and S phase change vs control” value in the data set with CCD18 normal colon cells is on record as “marked increase”.

For `COc1cccc2c1C(=O)c1c(O)c3c(c(O)c1C2=O)C[C@@](O)(C(=O)CO)C[C@@H]3O[C@H]1C[C@H](N)[C@H](O)[C@H](C)O1` [doxorubicin, reference compound], inhibition in data set [7] was half-maximal at 40 ± 10 nM (IC50).

On to `CO[C@@H](C(=O)N[C@H]1CCCCN(CCOC(=O)C2CCCCC2)C1=O)[C@H](O)[C@@H](O)[C@H](O)/C=C/C(C)(C)C` [Ben III], for which the IC50 in [10] (setting [12]) is 17 nM.

Consider `CCCCCCCCCCCCCC(=O)O[C@H]1CC[C@H](NC(=O)[C@H](OC)[C@H](O)[C@@H](O)[C@H](O)/C=C/C(C)C)C(=O)N(C)C1` [Bengamide B], for which the IC50 in data set [10] (setting [12]) was 2.4 nM.

Consider `CO[C@@H](C(=O)N[C@H]1CCCCNC1=O)[C@H](O)[C@@H](O)[C@H](O)/C=C/C(C)C` [Bengamide E], for which the IC50 in [10] (setting [12]) is 3300 nM.

Take `CCCCCCCCCCCCCC(=O)O[C@H]1CC[C@H](NC(=O)[C@H](OC)[C@H](O)[C@@H](O)[C@H](O)/C=C/C(C)C)C(=O)NC1` [Bengamide A, bengamide A]: in data set [10] (setting [12]), the IC50 was 1 nM.

In the case of Bengamide F, the concentration for half-maximal inhibition (IC50) in [10] (setting [12]) is 2900 nM.

As for `CO[C@@H](C(=O)N[C@@H](C)C(=O)NCCCOC(=O)C1CCCCC1)[C@H](O)[C@@H](O)[C@H](O)/C=C/C(C)(C)C` [Ben V], the IC50 in data set [1] was determined as 5080 ± 390 nM; in [2], 70 ± 20 nM; in data set [3], 80 nM; in [4] it was 2440 ± 250 nM; in data set [5], 660 ± 180 nM; in [6], 6510 ± 1120 nM. In addition, the results for the IC50 in data set [7] and in [10] (MDA-MB-435 human breast cancer cells) were 130 ± 10 nM and 4 nM, respectively. Also, the hemolysis at 1 h in data set [8] was approximately 2%. Moreover, in the data set with human erythrocytes, the “erythrocytes agglutination or modification of morphology” value is recorded as “none of these compounds caused erythrocytes agglutination or modification of their morphology”. The compound also showed a viability in data set [9] of approximately 100%. Also, in the data set on T84 cells, the “G0/G1 and S phases change vs control” value is recorded as “slight reduction”. Moreover, in the data set on T84 cells, the “SubG1 phase change vs control” value was “No differences were observed with the control”. Moreover, the entries for the “G2/M phase change vs control” value with T84 cells and in the data set on CCD18 normal colon cells were “this increase was much greater” and “slight increase”, respectively. Further, the “SubG1 and S phase change vs control” value in the data set on CCD18 normal colon cells is given as “marked increase”.

`CO[C@@H](C(=O)N[C@H]1CCCCNC1=O)[C@H](O)[C@@H](O)[C@H](O)/C=C/C1CCCC1` [Ben II]: in data set [10] (setting [12]), the IC50 was 440 nM.

Turning to `CO[C@@H](C(=O)N[C@H]1CCc2ccccc2NC1=O)[C@H](O)[C@@H](O)[C@H](O)/C=C/C(C)(C)C` [Ben IV], the IC50 in the data set with cancer cell line A549 was 9 nM.

Take `CO[C@@H](C(=O)N[C@H]1CC[C@@H](OC(=O)C2CCCCC2)CNC1=O)[C@H](O)[C@@H](O)[C@H](O)/C=C/C(C)(C)C` [LAF389]: in data set [10] (setting [12]), the half-inhibitory concentration (IC50) was 40 nM. Moreover, the pharmacokinetic properties entry in data set [11] is “poor pharmacokinetic properties”.

The record behind these values is PMC7281506, “Bengamide Analogues Show A Potent Antitumor Activity against Colon Cancer Cells: A Preliminary Study” (Marine Drugs, 2020).
